Laboratory results: patent publication US12421500B2, “Hepato-biliary-pancreatic tissues and methods of making same” (CHILDREN'S HOSPITAL MEDICAL CENTER, priority 2018, dated 2025)
Entries after “also recorded” stand apart in the source; their conditions may differ.

Experiments:
bAP organoids = bAP organoids exposed to RA signaling agonists or antagonists, gene expression by qPCR; format: cell-based, human; conditions: bAP organoids exposed at D9; Day 11, three days culture; FIG. 2G
Protocol: FIG. 2A-2I. Self-emergence of hepato-biliary-pancreatic progenitors from boundary organoid without inductive factors. 2A. Generating PROX1-tdTomato reporter line by CRISPR-Cas9 gene editing system. 2B. PROX1-tdTomato expression in established PROX1 reporter iPSCs from Day 9 to Day 11. 2C. PROX1-tdTomato positive area in each organoid. AP, AA and PP combinations were evaluated. The tdTomato expression was confirmed in the cell membrane of boundary organoids in AP combination. 2D. Hepatic invagination in mouse liver primordium explant (Prox1::GFP) and human iPSC-derived boundary organoids (PROX1::m-tdTomato). 2E. The immunostaining of PROX1 in E8.75 mice embryo and boundary organoids at Day 13. 2F. Transcriptomic characterization of boundary organoids. Anterior, boundary, and posterior domains were dissected, separated, and applied for RNA sequencing. […] Heatmap was separated into 8 detailed groups (C1-C8) by unbiased hierarchical clustering. […] 2G. Gene expression of HHEX, PDX1, SOX2, and CDX2 at Day 11 with three days culture of retinoic acid, BMS493, R-75251, or WIN18446. 2H. […]
In support, Applicant exposed the bAP organoids at D9 to various RA signaling agonists or antagonists. […] To implicate the cellular source for RA in the model system, RA signaling related genes were assessed in the isolated epithelial and non-epithelial cell populations. […]

posterior gut spheroid = assay: BMS493 pretreatment of anterior or posterior gut spheroids before fusion, HHEX and PDX1 immunostaining; format: cell-based, human; conditions: only posterior gut spheroid exposed prior to fusion; vs untreated control; FIG. 10
Text: FIG. 10. Abolishment of HHEX and PDX1 induction in posterior gut specific BMS493. BMS493 pretreated anterior or posterior gut spheroids were fused to induce HBP anlage formation. […] Scale bar: 200 μm
(§1) In support, Applicant exposed the bAP organoids at D9 to various RA signaling agonists or antagonists. […] Lateral plate mesoderm population acts as an activator for RA signaling during the specification in vivo^22-24. To implicate the cellular source for RA in the model system, RA signaling related genes were assessed in the isolated epithelial and non-epithelial cell populations. […] Complementing this, exposing only the posterior gut spheroid, and not the anterior gut spheroid to BMS493 prior to fusion suppressed the protein-level induction of HHEX and PDX1 (FIG. 10). […] Taken together, HBP progenitor self-specification derived from posterior region in boundary organoid model system is regulated by RA signals, and may be supported by co-differentiating anterior non-epithelial, most likely mesenchymal, lineages.
For whole mount immunohistochemical staining, spheroid and organoid were collected from Matrigel™ and removed remaining Matrigel™ by treating with Cell recovery solution at 4° C. for 30 min. The tissues were washed by PBS and were fixed in 4% PFA at 4° C. for overnight. […]

[1] = test system: E9.0 PROX1::GFP reporter mouse embryo; assay: E9.0 PROX1::GFP reporter mouse whole embryo culture with BMS493; conditions: after 2 days, vs DMSO control, FIGS. 11A and 11B
Text: FIGS. 11A and 11B. PROX1 inhibition by BMS493 exposure with E9.0 PROX1::GFP reporter mouse embryo explant culture. […] Retinoic acid receptors antagonist BMS493 treated group was compared with control (adding DMSO) group. 11A. Bright field image and GFP fluorescent image for embryo after culture. 11B. The area of GFP expressing parts was quantified from GFP image in (a). Scale bar: 1 mm
as §1
The Rotator-type Bottle Culture System (Ikemoto Scientific Technology Co., Ltd) was used for whole embryo culture. […]

[2] = test system: Cholecystokinin A Receptor (CCKAR) expressing organoids; assay: CCK exposure of organoids: ductal response and amylase ELISA; format: cell-based, human
Text: FIG. 3A-3O. Modeling human hepato-biliary-pancreatic organogenesis. 3A. Illustration of dissection of PROX1 positive region from HBP organoids and image of before/after dissection. 3B. Optimization of cultured system with 1) Floating, 2) Embedded into Matrigel™, 3) Embedded into Matrigel™ and cultured with Transwell™ from D13, 4). Dissected, embedded into Matrigel™, and cultured with Transwell™ from D13. […] 3C. Morphogenesis of boundary organoids through 2 days from Day 13. 3D. Morphogenetical change of PROX1 dissected tissue from boundary organoids through 30 days of air-liquid interface cultured system. 3E. Stereomicroscopic image of Day 37 organoids. 3F. Boundary organoid has tdTomato expressing hepatobiliary tissues branched out for putative pancreatic domains, similar to cultured mouse E10.5 derived hepato-biliary-pancreas. […]
To determine whether longer-term culture can produce more mature tissue, organoids were cultured until D90. […] Furthermore, the immunofluorescent staining detected the expression of the pancreas marker PDX1 and NGN3, the liver marker PROX1, and the bile duct markers CK19 and SOX9 in the organoids (FIG. 3H). […] Given the Cholecystokinin A Receptor (CCKAR) expression in the organoids (FIG. 3N), organoids were exposed to CCK and the pancreatic secretory function was analyzed with an amylase Enzyme-linked immune sorbent assay (ELISA). […]

Molecule | gene expression of HHEX (bAP organoids) | gene expression of PDX1 (bAP organoids) | protein-level induction of HHEX and PDX1 at boundary (posterior gut spheroid) | PROX1 expressing cells (GFP area) [1] | amylase secretion in supernatants (ELISA) ([2]; CCK treated vs untreated controls, 3 days-CCK, FIG. 3P) | ductal structures response to CCK ([2]; on the following day, FIG. 3O)
CC1(C)CC=C(C#Cc2ccccc2)c2cc(/C=C/c3ccc(C(=O)O)cc3)ccc21 [BMS493] | strongly suppressed | strongly suppressed | suppressed; also recorded: inhibited | significant inhibition | – | –
cholecystokinin [CCK] | – | – | – | – | increased | constricted
